Reference: PubChem BioAssay AID248 (DTP/NCI, 2004)
Where “and” joins values, the source holds several entries; their conditions need not be identical. Equal values may be shown once. Toxic doses and inconclusive results are not listed. No stated cut-off is given here; in the data, active means T/C of 150% or more; inactive means T/C below 125%.

System: L1210 leukemia ip in BDF1 mice, survival T/C
Test: NCI In Vivo Anticancer Drug Screen. Data for tumor model L1210 Leukemia (intraperitoneal) in B6D2F1 (BDF1) mice
Conditions: endpoint: mean survival time, higher = longer survival
Summary of the method: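 Read-out is survival time, reported as the treated-group measurement over the vehicle-control measurement.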

[1] = dose: 50.0 mg/kg/injection, schedule: Q01DX009 (ip), vehicle: saline
[2] = dose: 100.0 mg/kg/injection, schedule: Q01DX009 (ip), vehicle: saline
[3] = dose: 100.0 mg/kg/injection, schedule: Q04DX003 (ip), vehicle: Klucel (hydroxypropylcellulose) (HPC)
[4] = dose: 200.0 mg/kg/injection, schedule: Q04DX003 (ip), vehicle: Klucel (hydroxypropylcellulose) (HPC)
[5] = dose: 400.0 mg/kg/injection, schedule: Q04DX003 (ip), vehicle: Klucel (hydroxypropylcellulose) (HPC)
[6] = dose: 100.0 mg/kg/injection, schedule: Q01DX009 (ip), vehicle: Klucel (hydroxypropylcellulose) (HPC)
[7] = dose: 200.0 mg/kg/injection, schedule: Q01DX009 (ip), vehicle: Klucel (hydroxypropylcellulose) (HPC)
[8] = dose: 100.0 mg/kg/injection, schedule: Q01DX001 (ip), vehicle: saline
[9] = dose: 200.0 mg/kg/injection, schedule: Q01DX001 (ip), vehicle: saline
[10] = dose: 200.0 mg/kg/injection, schedule: Q01DX009 (ip), vehicle: saline
[11] = dose: 400.0 mg/kg/injection, schedule: Q01DX001 (ip), vehicle: saline
[12] = dose: 400.0 mg/kg/injection, schedule: Q01DX009 (ip), vehicle: saline

Measured: T/C

CC1(C)OCC2SC(n3cnc4c(N)ncnc43)C(O)C2O1 (stereo unspecified)
inactive: dose: 25.0 mg/kg/injection, schedule: Q01DX009 (ip), vehicle: saline 94 % of control | dose: 33.0 mg/kg/injection, schedule: Q01DX001 (ip), vehicle: carboxymethylcellulose (CMC) 97 % of control | [1] 98 % of control | dose: 66.5 mg/kg/injection, schedule: Q01DX001 (ip), vehicle: carboxymethylcellulose (CMC) 92 % of control | dose: 100.0 mg/kg/injection, schedule: Q01DX005 (ip), vehicle: saline 94 % of control and 97 % of control | [2] 98 % of control | dose: 133.0 mg/kg/injection, schedule: Q01DX001 (ip), vehicle: carboxymethylcellulose (CMC) 92 % of control | dose: 200.0 mg/kg/injection, schedule: Q01DX005 (ip), vehicle: saline 95 % of control

CS(=O)(=O)OCCCN(CCCOS(C)(=O)=O)c1ccc(C=Nc2ccc(-c3csc(COc4ccc(Cl)cc4)n3)cc2)cc1
inactive: dose: 100.0 mg/kg/injection, schedule: Q01DX009 (ip), vehicle: saline with Tween-80 97 % of control | dose: 200.0 mg/kg/injection, schedule: Q01DX009 (ip), vehicle: saline with Tween-80 94 % of control | dose: 400.0 mg/kg/injection, schedule: Q01DX009 (ip), vehicle: saline with Tween-80 94 % of control

Cc1cc(C)c([N+](=O)[O-])c(C)c1C(=O)C(C)C
inactive: dose: 100.0 mg/kg/injection, schedule: Q01DX009 (ip), vehicle: other 105 % of control | [3] 96 % of control | dose: 200.0 mg/kg/injection, schedule: Q01DX009 (ip), vehicle: other 101 % of control | [4] 100 % of control | dose: 400.0 mg/kg/injection, schedule: Q01DX009 (ip), vehicle: other 95 % of control | [5] 94 % of control

CC1(C)N=C(N)N=C(N)N1c1cccc(CCC(=O)Nc2ccc(S(=O)(=O)F)cc2)c1
inactive: dose: 0.8 mg/kg/injection, schedule: Q01DX009 (ip), vehicle: saline 103 % of control | dose: 4.0 mg/kg/injection, schedule: Q01DX009 (ip), vehicle: saline 101 % of control | dose: 20.0 mg/kg/injection, schedule: Q01DX009 (ip), vehicle: saline 103 % of control | [2] 112 % of control

COC(=O)[C@H]1[C@H]2C[C@@H]3c4[nH]c5ccccc5c4CCN3C[C@H]2C[C@@H](OC(=O)c2cc(OC)c(OC)c(OC)c2)[C@@H]1OC
inactive: dose: 0.23 mg/kg/injection, schedule: Q01DX009 (ip), vehicle: Klucel (hydroxypropylcellulose) (HPC) 93 % of control | dose: 0.23 mg/kg/injection, schedule: Q04DX003 (ip), vehicle: saline 95 % of control | dose: 0.46 mg/kg/injection, schedule: Q01DX009 (ip), vehicle: Klucel (hydroxypropylcellulose) (HPC) 90 % of control | dose: 0.46 mg/kg/injection, schedule: Q04DX003 (ip), vehicle: saline 104 % of control | dose: 0.93 mg/kg/injection, schedule: Q01DX009 (ip), vehicle: Klucel (hydroxypropylcellulose) (HPC) 101 % of control | dose: 0.93 mg/kg/injection, schedule: Q04DX003 (ip), vehicle: saline 112 % of control | dose: 1.87 mg/kg/injection, schedule: Q01DX009 (ip), vehicle: Klucel (hydroxypropylcellulose) (HPC) 88 % of control | dose: 1.87 mg/kg/injection, schedule: Q04DX003 (ip), vehicle: saline 98 % of control | dose: 3.75 mg/kg/injection, schedule: Q04DX003 (ip), vehicle: saline 101 % of control

COc1ccc(NC(=S)NNC(=S)NNc2ccccc2)cc1
inactive: [6] 90 % of control | [3] 93 % of control | [7] 89 % of control | [4] 92 % of control | [5] 86 % of control

O=C(Nc1cccc(F)c1)Nc1nccs1
inactive: dose: 25.0 mg/kg/injection, schedule: Q01DX009 (ip), vehicle: Klucel (hydroxypropylcellulose) (HPC) 89 % of control | dose: 50.0 mg/kg/injection, schedule: Q01DX009 (ip), vehicle: Klucel (hydroxypropylcellulose) (HPC) 99 % of control | [6] 95 % of control and 97 % of control

CC12CC3C(C(=O)O)C(C(=O)O)C1C(C(=O)O2)C3C(=O)O (stereo unspecified)
inactive: [1] 97 % of control | [8] 91 % of control | [2] 90 % of control | [9] 89 % of control | [10] 100 % of control | [11] 87 % of control

CCOP(=O)(OCC)Oc1ccc(S(C)=O)cc1 (stereo unspecified)
inactive: dose: 5.0 mg/kg/injection, schedule: Q01DX001 (ip), vehicle: saline 114 % of control

CC(=O)c1c(C)c(C)cc(C)c1C
inactive: [6] 110 % of control | [3] 96 % of control | [7] 97 % of control | [4] 103 % of control | dose: 400.0 mg/kg/injection, schedule: Q01DX009 (ip), vehicle: Klucel (hydroxypropylcellulose) (HPC) 111 % of control | [5] 103 % of control

O=C(O)C(F)(F)F
inactive: dose: 50.0 mg/kg/injection, schedule: Q01DX001 (ip), vehicle: water 112 % of control | dose: 50.0 mg/kg/injection, schedule: Q01DX001 (iv), vehicle: water 116 % of control | [8] 102 % of control | dose: 100.0 mg/kg/injection, schedule: Q01DX001 (iv), vehicle: water 114 % of control | [2] 100 % of control | dose: 100.0 mg/kg/injection, schedule: Q04DX002 (ip), vehicle: saline 96 % of control and 98 % of control | dose: 100.0 mg/kg/injection, schedule: Q04DX003 (ip), vehicle: saline 95 % of control | [9] 104 % of control | [10] 95 % of control and 96 % of control | dose: 200.0 mg/kg/injection, schedule: Q04DX002 (ip), vehicle: saline 94 % of control and 89 % of control | dose: 200.0 mg/kg/injection, schedule: Q04DX003 (ip), vehicle: saline 93 % of control | [11] 98 % of control | [12] 98 % of control and 90 % of control | dose: 400.0 mg/kg/injection, schedule: Q04DX002 (ip), vehicle: saline 93 % of control and 94 % of control | dose: 400.0 mg/kg/injection, schedule: Q04DX003 (ip), vehicle: saline 91 % of control

c1csc(C[N+]23CN4CN(CN(C4)C2)C3)c1
inactive: [2] 92 % of control | [10] 103 % of control | [12] 101 % of control

CC1(C)CCCC2(C)C3CCC(C31)C2OC(=O)c1ccc([N+](=O)[O-])cc1 (stereo unspecified)
inactive: dose: 100.0 mg/kg/injection, schedule: Q01DX001 (ip), vehicle: Klucel (hydroxypropylcellulose) (HPC) 101 % of control | dose: 200.0 mg/kg/injection, schedule: Q01DX001 (ip), vehicle: Klucel (hydroxypropylcellulose) (HPC) 98 % of control | dose: 400.0 mg/kg/injection, schedule: Q01DX001 (ip), vehicle: Klucel (hydroxypropylcellulose) (HPC) 93 % of control

Cc1ccnc(NS(=O)(=O)c2ccc(N=[N+]=[N-])cc2)n1
inactive: dose: 100.0 mg/kg/injection, schedule: Q01DX009 (ip), vehicle: carboxymethylcellulose (CMC) 92 % of control and 91 % of control | dose: 100.0 mg/kg/injection, schedule: Q04DX002 (ip), vehicle: carboxymethylcellulose (CMC) 98 % of control | dose: 200.0 mg/kg/injection, schedule: Q01DX009 (ip), vehicle: carboxymethylcellulose (CMC) 95 % of control | dose: 200.0 mg/kg/injection, schedule: Q04DX002 (ip), vehicle: carboxymethylcellulose (CMC) 93 % of control and 98 % of control | dose: 400.0 mg/kg/injection, schedule: Q01DX009 (ip), vehicle: carboxymethylcellulose (CMC) 97 % of control and 102 % of control | dose: 400.0 mg/kg/injection, schedule: Q04DX002 (ip), vehicle: carboxymethylcellulose (CMC) 101 % of control and 105 % of control

C/C(=N\O)c1ccccc1C
inactive: [3] 101 % of control | [4] 106 % of control | [5] 93 % of control
